Experiments:
[1] = tested on: CXCR4; experiment: Flow cytometry of CXCR4 expression on bone marrow HPCs and EPCs; format: in vivo, mice; details: treated 4 days
Method: Bone marrow was aspirated on day 5 and harvested cells were used to determine a, SDF-1α levels in bone marrow supernatant as determined by ELISA; b, % of bone marrow Lin^− Sca-1^+ cells expressing CXCR4; and c, % of bone marrow CD34^+ VEGFR2^+ cells expressing CXCR4. Harvested cells were also utilized in the following chemotaxis assays: d, number of HPCs; and e, EPCs undergoing chemotaxis towards 30 nM SDF-1α. Cells taken from bone marrow of mice treated with G-CSF (closed bars) or vehicle (PBS, open bars). f, number of HPCs; and g, EPCs undergoing chemotaxis towards 30 nM SDF-1α.
(§1) For flow cytometric analysis, cells were re-suspended in FACS buffer. To identify neutrophils in the bone marrow, surface expression of the granulocyte marker Ly-6G/Ly6C (Gr-1) was determined. Neutrophils were identified as Gr-1^high positive cells with a characteristic high side scatter profile. HPCs residing in the BM were selected as being negative for lineage (Lin^−) markers: CD3e, CD11b, CD45R, Ly-76, and Gr-1 and positive for Sca-1 (Lin^− Sca-1^+ cells) (Gerber et al., 2002; Uchida, et al., 1997). EPCs residing in the BM were selected as being positive for both CD34 and VEGFR2 (CD34^+ VEGFR2^+ cells) (Asahara et al., 1997; Yoon et al., 2005). Furthermore, neutrophils were stained for the surface expression of CXCR2, whilst Lin^− Sca-1^+ cells and CD34^+ VEGFR2^+ cells were stained for the cell surface expression of CXCR4. Samples were then washed and then quantified on a FACSAria cell sorter (BD Biosciences, Oxford, United Kingdom) and analysed using FACSDiva software.

[2] = tested on: CD34^+ VEGFR2^+ EPCs; experiment: PI staining, cell cycle status of CD34+ VEGFR2+ EPCs; format: in vivo, mice; details: treated 4 days, FIG. 25d
Method: as §1, with “Furthermore, neutrophils were stained for the surface expression of CXCR2, whilst Lin^− Sca-1^+ cells and CD34^+ VEGFR2^+ cells were stained for the cell surface expression of CXCR4.” left out
Lin^− Sca-1^+ cells and CD34^+ VEGFR2^+ cells were analysed to determine their cell cycling status using a propidium iodide (PI) stain. […] A dotplot of PI-Width against PI-Area was recorded. Aggregates of cells were detected as cells having a larger PI-W profile and were not included in the gate. […] To calculate the percentage of cells undergoing active cell cycling, a marker was set to exclude the G0/G1 peak and the percentage of cells in S/G2/M was calculated.

[3] = tested on: CXCR2; experiment: Flow cytometry of CXCR2 expression on bone marrow neutrophils; format: in vivo; details: VEGF-treated mice, FIG. 24d
Method: as §1

[4] = tested on: neutrophils; details: VEGF pre-treatment 4 days, KC 30 μg/kg i.v., 60 minutes, FIG. 24c
Method: (§2) 24 hours later these mice underwent perfusion of the right hind limb. CXCR4 antagonist (AMD3100 0.1 mM, closed bars) or vehicle (PBS, open bars) were then infused directly into the femoral artery for 10 minutes. The hind limb was then perfused for a further 50 minutes to allow collection of a, neutrophils via the femoral vein. […] The hind limb was again perfused for a further 50 minutes to allow b, collection of neutrophils. […] Data: mean±s.e.m. *: P<0.05, ***: P<0.001 between selected groups.
(§3) Female BALB/c mice were purchased from Harlan (Oxford, United Kingdom). […] 24 hours after the last injection, mice were administered a CXCR4 antagonist (AMD3100, 5 mg/kg i.p), KC (30 μg/kg i.v.) or vehicle and blood was collected via cardiac puncture 60 minutes later for enumeration of circulating leukocyte, HPC, EPC, and stromal progenitor cell levels.
(§4) The perfusate was centrifuged and re-suspended in DMEM+20% FBS. In some experiments citrated blood was obtained via cardiac bleed and lysed for red blood cells. Bone marrow and perfusate cytospins, and blood smears were stained using DiffQuik for the enumeration of mononuclear cells, eosinophils, and neutrophils. Bone marrow, perfusate and lysed blood were then used for assays outlined below to enumerate HPCs (CFU-HPC), EPCs (CFU-EPC), SPCs (CFU-F).

[5] = tested on: EPCs; experiment: Circulating CFU-EPC in blood; format: in vivo, mice; details: FIG. 20c
[6] = tested on: HPCs; experiment: In situ perfusion of mouse hind limb, CFU-HPC in perfusate; details: for HPC mobilization from the bone marrow: FIG. 21b
Method: 24 hours after the last injection, mice underwent perfusion of the right hind limb. […] The hind limb was then perfused for a further 50 minutes to allow collection of b, CFU-HPC; c, CFU-EPC; or d, CFU-SPC; via the femoral vein. CFU-HPC, CFU-EPC, and CFU-SPC are shown as total number of colonies collected in the perfusate. n=5-8 mice per group. Data: means±s.e.m. *: P<0.05, **: P<0.01, ***: P<0.001 between selected groups.
Female BALB/c mice were purchased from Harlan (Oxford, United Kingdom).
On day 5 following pre-treatment of growth factors, mice were anaesthetized and the femoral artery and vein exposed. The hind limb was isolated by occlusion of the external iliac artery, superficial epigastric and muscular branch. Polyethylene cannulae (Portex, London, UK) were immediately inserted into the femoral artery and vein as previously described (Martin et al., 2003; 2006; Wengner et al., 2008). Perfusion buffer was infused via the arterial cannula and removed from the venous cannula using a Minipuls peristaltic pump (Anachem, Luton, UK). The hind limb was perfused for an initial 2 minutes to remove remaining blood from the vasculature and then perfused for a further 60 min with vehicle alone or the CXCR4 antagonist (AMD3100, 0.1 mM), infused over the first 10 minutes using an infusion/withdrawal pump (Harvard Instruments, U.K.).
The perfusate was centrifuged and re-suspended in DMEM+20% FBS. […] Bone marrow, perfusate and lysed blood were then used for assays outlined below to enumerate HPCs (CFU-HPC), EPCs (CFU-EPC), SPCs (CFU-F).
5×10^4 cells were added to Methocult medium (Stem cell technologies) supplemented with specific cytokines and growth factors to enable formation of CFU-HPC. Mobilized cells were incubated for 11 days before quantification. Further characteristics of CFU-HPC colonies were obtained on day 12, namely the mean number of cells in each colony, and the mean colony area. The mean colony area (mm^2) was determined by image analysis using Scion Image analysis program (NIH). The cell number was determined by diluting colonies grown in Methocult into DMEM (to disperse the methylcellulose) and aspirating the colonies into a single cell suspension before obtaining a cell count.
The total number of colony forming units mobilized was calculated according to the number of colonies per plate×by the total number of leukocytes mobilized/number of cells seeded.

[7] = tested on: EPCs; experiment: In situ perfusion of mouse hind limb, CFU-EPC in perfusate; format: in vivo, mice; details: for EPC mobilization from the bone marrow: FIG. 21c
[8] = tested on: neutrophils; experiment: Neutrophil mobilization, in situ perfusion of hind limb; details: VEGF (50 nM) infused acutely with CXCR4 antagonist, FIG. 24b
Method: as §2
On day 5 following pre-treatment of growth factors, mice were anaesthetized and the femoral artery and vein exposed. The hind limb was isolated by occlusion of the external iliac artery, superficial epigastric and muscular branch. […] Perfusion buffer was infused via the arterial cannula and removed from the venous cannula using a Minipuls peristaltic pump (Anachem, Luton, UK). The hind limb was perfused for an initial 2 minutes to remove remaining blood from the vasculature and then perfused for a further 60 min with vehicle alone or the CXCR4 antagonist (AMD3100, 0.1 mM), infused over the first 10 minutes using an infusion/withdrawal pump (Harvard Instruments, U.K.).
The perfusate was centrifuged and re-suspended in DMEM+20% FBS.

[9] = tested on: SPCs; experiment: CFU-SPC bone marrow frequency; format: in vivo, mice; details: treated over 4 days, compared to controls, FIG. 22c
Method: 24 hours after the last injection, bone marrow was aspirated for the enumeration of a, CFU-HPC bone marrow frequency; b, CFU-EPC bone marrow frequency; and c, CFU-SPC bone marrow frequency.
as §3, §4
5×10^5 cells were added to Mesencult media including supplements (Stemcell Technologies). Dishes were incubated for 7 days before media was changed, and then incubated for a further 14 days before the enumeration of SPC colonies (CFU-F).

[10] = growth factor pre-treatment 4 days, then CXCR4 antagonist infused

## VEGF
[1]; CD34+ VEGFR2+ bone marrow cells, FIG. 23c
  CXCR4 expression on EPCs: did not alter the expression of CXCR4 on either HPCs or EPCs
[1]; Lin- Sca-1+ bone marrow cells, FIG. 23b
  CXCR4 expression on HPCs: did not alter the expression of CXCR4 on either HPCs or EPCs
[2]
  percentage of CD34+ VEGFR2+ EPCs in S/G2/M phase of the cell-cycle: did not alter the percentage of CD34^+ VEGFR2^+ EPCs in the S/G2/M phase
[3]
  proportion of Gr-1+ bone marrow neutrophils expressing CXCR2: did not affect either the proportion of Gr-1^+ bone marrow neutrophils expressing CXCR2
[4]
  KC-induced mobilization of neutrophils in vivo: completely abrogated
[5]; agent alone (AMD3100 5 mg/kg i.p., blood at 60 min; G-CSF or VEGF once daily for 4 days)
  circulating numbers of EPCs: increase in EPC numbers
[5]; growth factor pre-treatment over 4 days, then CXCR4 antagonist AMD3100 5 mg/kg i.p.
  circulating numbers of EPCs: more than additive increase in EPC numbers
[6]; VEGF pre-treatment 4 days, then CXCR4 antagonist infused
  reduction of HPC mobilization induced by infusion of the CXCR4 antagonist: 75%
[6]; agent alone (CXCR4 antagonist 0.1 mM infused 10 min; G-CSF or VEGF pre-treatment 4 days), perfusate over 1 hour
  HPC mobilization from the bone marrow: HPCs and SPCs were not mobilized
[6]; growth factor (50 nM) infused into femoral artery for 10 minutes, alone, FIG. 31a
  HPC mobilization, acute administration: mobilized both HPCs and EPCs
[6]; [10]
  HPC mobilization from the bone marrow: almost completely suppressed HPC mobilization
[7]; agent alone (CXCR4 antagonist 0.1 mM infused 10 min; G-CSF or VEGF pre-treatment 4 days)
  EPC mobilization from the bone marrow: significant EPC mobilization
[7]; growth factor (50 nM) infused into femoral artery for 10 minutes, alone, FIG. 31b
  EPC mobilization, acute administration: mobilized both HPCs and EPCs
[7]; [10]
  EPC mobilization from the bone marrow: an additive effect was observed for EPC mobilization
[8]
  suppression of neutrophil mobilization in response to the CXCR4 antagonist, acute administration: effect was not seen
[9]
  frequency/number of SPCs in the bone marrow: no difference was observed
